According to patent US9868954B2, “Reduction of TGFβ signaling in myeloid cells in the treatment of cancer” (The United States of America, as represented by the …, priority 2011, dated 2018):

System: Gr-1+CD11b+ myeloid cells from Tgfbr2^myeKO
Assay: Expression of IL-10, IL-4 and PF4 (Western blotting, quantitative PCR) in sorted Gr-1+CD11b+ myeloid cells cultured with pathway inhibitors
Type: cell-based, mice
Conditions: myeloid cells lacking Tgfbr2, cultured 6 hours with inhibitor; mRNA level and protein level
Description: Gr-1+CD11b+ myeloid cells were sorted with MACS from Tgfbr2^myeKO and cultured for 6 hours with an inhibitor of GSK3 (SB216763, Sigma) or PI3K (LY294002, Calbiochem) at different doses (2, 5, and 10 μM for the GSK3 inhibitor; 5, 10, and 20 μM for the PI3K inhibitor). SB216763 is a potent and selective ATP-competitive inhibitor of the serine/threonine protein kinas GSK α and β. […] GSK3 Western blotting was performed to detect inhibiting activity. The expression of IL-10, IL-4, and PF4 was examined using Western blotting and quantitative PCR.

SMILES	expression of IL-10, IL-4, and PF4
Cn1cc(C2=C(c3ccc(Cl)cc3Cl)C(=O)NC2=O)c2ccccc21 [SB216763]	reversed the down-regulation of IL-10, IL-4, and PF4
Cc1ccc2nc(NCCN)c3ncc(C)n3c2c1 [BMS-345541]	did not show a significant effect
